In assay [1] the target is T1, serotonin S2 (5-HT2) receptors (Rattus norvegicus, UniProt P14842).
T1 construct: cortical tissue is dissected and weighed; from tissue; host or cells: cerebral cortex membranes of male Wistar (Mol:Wist) rats
In words: inhibition of 3H-ketanserin binding to serotonin S2 (5-HT2) receptors in rat cortex in vitro. The note with it: 3H-ketanserin 0.5 nM, rat cortex membranes, read-out: Binding IC50, 3H Ket.

In the next assay the target is T2, dopamine D-2 receptors (Rattus norvegicus, UniProt P61169).
T2 construct: striatal tissue is dissected and weighed; from tissue; host or cells: corpus striatum membranes of male Wistar rats
In words: inhibition of 3H-spiperone binding to dopamine D-2 receptors in rat corpus striatum in vitro. The note with it: 3H-spiperone 0.5 nM, rat corpus striatum membranes, in vitro; read-out: Binding IC50, 3H Spi. The essentials:
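Rat striatal membranes from male Wistar rats in 50 mM K-phosphate pH 7.4 incubated 10 min at 37 °C with 0.5 nM ³H-spiperone and five drug concentrations over 3 decades. Bound radioactivity collected by filtration and counted by scintillation; nonspecific binding defined with 10 μM 6,7-ADTN.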

The target of a further assay is T3, 5-HT2 (Rattus norvegicus, UniProt P14842).
T3 construct: Four rats, male Wistar (Mol:Wist) SPF rats weighing 170-240 g; from tissue; host or cells: living male Wistar (Mol:Wist) SPF rats (in vivo, endogenous receptor)
Nature of the assay: quipazine inhibition (quipazine-induced head twitches in rats). The class given is in vivo. Particulars: sc, 24 h, read-out: Quipazine inhibition ED50, 24h (sc).

The IC50 is the concentration that gives 50% inhibition. What is called ED50 is the dose that gives a 50% effect, or the effect in half of the subjects.

T1 sequence (P14842 whole entry): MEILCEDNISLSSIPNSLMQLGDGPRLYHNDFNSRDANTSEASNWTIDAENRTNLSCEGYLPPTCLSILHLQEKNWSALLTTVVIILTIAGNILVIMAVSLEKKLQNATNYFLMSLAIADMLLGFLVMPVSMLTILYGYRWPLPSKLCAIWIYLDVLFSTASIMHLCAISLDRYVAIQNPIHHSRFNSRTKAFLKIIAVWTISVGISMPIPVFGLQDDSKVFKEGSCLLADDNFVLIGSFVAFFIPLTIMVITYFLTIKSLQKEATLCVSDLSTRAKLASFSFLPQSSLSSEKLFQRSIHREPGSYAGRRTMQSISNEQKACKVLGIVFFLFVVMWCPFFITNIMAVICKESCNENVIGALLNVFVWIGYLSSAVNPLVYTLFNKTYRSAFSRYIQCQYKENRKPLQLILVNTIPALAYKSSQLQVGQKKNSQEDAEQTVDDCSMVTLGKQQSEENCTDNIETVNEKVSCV
T2 sequence (P61169 whole entry): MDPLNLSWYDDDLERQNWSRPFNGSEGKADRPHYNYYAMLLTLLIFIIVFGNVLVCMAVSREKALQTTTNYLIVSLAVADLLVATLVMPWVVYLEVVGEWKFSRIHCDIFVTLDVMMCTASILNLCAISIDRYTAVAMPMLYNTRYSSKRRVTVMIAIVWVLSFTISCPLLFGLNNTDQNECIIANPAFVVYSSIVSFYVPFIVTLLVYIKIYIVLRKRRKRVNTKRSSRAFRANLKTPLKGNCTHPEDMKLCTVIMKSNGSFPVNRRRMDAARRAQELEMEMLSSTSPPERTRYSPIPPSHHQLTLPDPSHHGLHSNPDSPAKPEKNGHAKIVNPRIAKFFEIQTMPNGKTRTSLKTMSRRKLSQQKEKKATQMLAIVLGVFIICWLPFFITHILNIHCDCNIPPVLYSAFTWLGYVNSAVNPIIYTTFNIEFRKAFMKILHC
T3 sequence (P14842 whole entry): as the sequence (P14842 whole entry) above

For `CC(C)N1CCN(CCN2CCC(c3cn(-c4ccc(F)cc4)c4cc(Cl)ccc34)CC2)C1=O` [Compound 4a, 6-chloro-1-(4-fluorophenyl)-3-[1-[2-[3-(2-propyl)-2-imidazolidinon-1-yl]ethyl]-4-piperidyl]-1H-indole], the IC50 in assay [1] is 1.5 nM; on dopamine D-2 receptors it was 130 nM.

Take `Cc1ccc2c(C3CCN(CCN4CCNC4=O)CC3)cn(-c3ccc(F)cc3)c2c1` [Compound 4g, 1-(4-fluorophenyl)-3-[1-[2-(2-imidazolidinon-1-yl)ethyl]-4-piperidyl]-6-methyl-1H-indole]: the IC50 is 0.8 nM in assay [1] and 270 nM on dopamine D-2 receptors.

In the case of `Cc1ccc2c(C3CCN(CCN4CCN(C(C)C)C4=O)CC3)cn(-c3ccc(F)cc3)c2c1` [Compound 5a, 1-(4-fluorophenyl)-6-methyl-3-[1-[2-[3-(2-propyl)-2-imidazolidinon-1-yl]ethyl]-4-piperidyl]-1H-indole], the values for the concentration for half-maximal inhibition (IC50) (in assay [1]; on dopamine D-2 receptors) were 1.6 nM and 190 nM, respectively.

Turning to `OCCN1CCN(c2cn(-c3ccc(F)cc3)c3ccc(C(F)(F)F)cc23)CC1` [Lu 21-152, 1-(4-fluorophenyl)-3-[4-(2-hydroxyethyl)-1-piperazinyl]-5-trifluoromethyl-1H-indole, reference compound], the figures for the IC50 (in assay [1]; on dopamine D-2 receptors) were 1.4 nM and 2.6 nM, respectively. The ED50 on 5-HT2 stood at 0.15 µmol/kg.

Source of the values: patent US5216001A, “Indole derivatives” (H. Lunbeck A/S, priority 1990, dated 1993).
